The test system of this assay is Caco-2 cell barrier. The assay is described as follows: Caco-2 cell barrier integrity (TEER and capacitance, cellZscope2). The conditions noted are these: 20 h after addition, value before addition = 100%; 10 mM EGTA. In kind it is cell-based. As to the method: Twenty thousand CaCo-2 cells were seeded on 24-well ThinCerts (pre-coated with FCS for 30 min). In the lower compartment (basolateral), 1 ml culture medium per well was added. As a control, half of the ThinCerts were not seeded with cells. The ThinCerts were transferred to the cellZscope2 (nanoAnalytics). Two hundred µl of medium was added to the ThinCerts to reach a final volume of 300 µl in the upper compartment (apical). The TEER and capacitance were measured every hour. After 5 days, the TEER reached a constant value of 700–900 Ohm*cm² and the medium was replaced with EMEM with 2% FCS, 2 mM L-glutamine, 1x non-essential amino acids, and 110 nM hydrocortisone. The TEER and capacitance were measured every hour for 1 day. Sc1o (0 µM, 1 µM, 10 µM, 25 µM, 50 µM) diluted in EMEM with 2% FCS, 2 mM L-glutamine, 1x non-essential amino acids, and 110 nM hydrocortisone were added to the apical compartment. As a control, 10 mM of EGTA was used. The cellZscope2 module was transferred into the incubator for 24 h, and every 30 min the TEER and capacitance were detected. TEER and capacitance values at the time point of adding the compound solution were used as references to calculate the alteration (t0h-value). […] At time point 0h and after 24 h the medium of the basolateral and apical compartment was collected and stored at −20 °C and analysed by LC-MS/MS.

Regarding `O=C(O)CN(CCOCCOCCN(CC(=O)O)CC(=O)O)CC(=O)O` [EGTA, Ethylene glycol-bis(β-aminoethyl ether)-N,N,N′,N′-tetraacetic acid], the “Relative TEER” value is 0.12 ± 0.03% and the Relative capacitance is 481 ± 168%.

The values above are taken from article PMC7200784, “In-vitro safety and off-target profile of the anti-parasitic arylmethylaminosteroid 1o” (Scientific Reports, 2020).
